Reference: US10689394B2, “Thieno[2,3-b]pyridine derivative, quinoline derivative, and use thereof” (The University of Tokyo, priority 2016, dated 2020)

These molecules were tested against T1, binding between ALS-related mutant SOD1 (Flag-SOD1 G93A) and Derlin-1 (Derlin-1-HA) (Homo sapiens, UniProt P00441+Q9BUN8, G94A) (assay: Cell-based co-immunoprecipitation assay of mutant SOD1 (G93A)-Derlin-1 binding). Settings: assay concentration 20 μM; HEK293A cells overexpressing Flag-SOD1 G93A and Derlin-1-HA.
T1 construct: expressed in transfected cells; host or cells: HEK293A
Parameters: key to Activity value (score): a compound exhibiting no inhibitory activity is set at 0; a compound exhibiting inhibitory activity is set at 1; a compound exhibiting significant inhibitory activity is set at 2; a compound having higher inhibitory activity than the compound of Example 1 is set at 3
Experimental: As cells, human embryonic kidney-derived, Human Embryonic Kidney 293A (HEK293A) cells were used. The cells were cultured in High Glucose Dulbecco's modified Eagle's medium (DMEM: 4.5 mg/ml glucose, Sigma) supplemented with complement-inactivated 10% fetal bovine serum (FBS, Vitromex) and 100 units/mL Penicillin G (Meiji), which was placed in an incubator set at conditions of 37° C. and 5% CO2.
Transfection into the HEK293A cells was carried out using PEI-Max (Polyscience) at a ratio of 3 μL of PEI-Max to 1 μg of plasmid. DMEM was mixed with PEI-Max, and the mixture was then left at rest for 5 minutes. Thereafter, the reaction mixture was added to the plasmid DNA dissolved in DMEM, and the thus obtained mixture was further left at rest for 15 minutes. After seeding, the culture was carried out for 12 to 24 hours, and the resultant was then added to a culture medium of cells, in which the medium had been exchanged with DMEM supplemented only with 10% FBS.
pcDNA3.0-Derlin-1-HA, pcDNA3.0-Flag-SOD1 G93A, and 123 types of other mutants.
In the lysis of HEK293A cells for use in a co-immunoprecipitation experiment, an IP lysis buffer (20 mM Tris-HCl (pH 7.5), 150 mM NaCl, 10 mM EDTA (pH 8.0), 1% Triton-X 100, 5 μg/mL leupeptin, and 1 mM phenylmethylsulfonyl fluoride) was used.
After the transfection on a 24-well plate, the cells were cultured for 12 hours or 24 hours, and the obtained cell culture was exchanged with 200 μL of medium. Thereafter, 1% DMSO or various types of compounds having each different concentration were added into the culture. Thirty-six hours or twenty-four hours later, the cells were incubated in the IP lysis buffer (300 μL/well) at 4° C. for 25 minutes, so that the cells were lysed. The cell lysate was centrifuged at 4° C. at 15000 rpm for 10 minutes, and a supernatant was then recovered. To this supernatant, Anti-Flag M2 affinity gel was added in a liquid amount of 20 μL, and they were allowed to react with each other by subjecting the obtained mixture to inversion mixing at 4° C. for 25 minutes. After completion of the reaction, a supernatant was removed, and the residue was washed twice with High salt wash buffer (1% Triton X 100, 500 mM NaCl, 20 mM Tris-HCl (pH 7.5), and 5 mM EGTA), and was then washed once with Low salt wash buffer (150 mM NaCl, 20 mM Tris-HCl (pH 7.5), and 5 mM EGTA). Finally, 50 μL of a 2×SDS sample buffer was added to the resultant, and the obtained mixture was then boiled at 98° C. for 3 minutes to obtain an SDS-PAGE sample. Regarding the lysate, a 2×SDS sample buffer was added in an amount equal to the supernatant, and the obtained mixture was then boiled at 98° C. for 3 minutes to obtain an SDS-PAGE sample.
After completion of SDS-PAGE, a protein was transferred from the gel into a polyvinylidene difluoride membrane (PVDF) ([…], Pall), and was then blocked with TBS-T (150 mM NaCl, 50 mM Tris-HCl (pH 8.0), and 0.05% Tween 20) supplemented with 5% skimmed milk at room temperature for 2 hours or more. Thereafter, a primary antibody diluted with TBS-T supplemented with 5% bovine serum albumin and 0.1% NaN3 was allowed to bind to each molecule on the PVDF membrane at 4° C. for 12 hours or more. After completion of the reaction, a secondary antibody (HRP-linked 2nd antibody) diluted with TBS-T supplemented with 5% skimmed milk was allowed to bind to the primary antibody at room temperature for 1 hour. Thereafter, the resultant was washed with TBS-T for 15 minutes, 3 or more times, and detection was then carried out using an enhanced chemiluminescence (ECL) system.
With regard to the compounds of the present invention (Example Compound 1 to Example Compound 47), whether or not the present compound can inhibit the binding between ALS-related mutant SOD1 and Derlin-1 in a cell by being added into a cell culture solution was examined according to a co-immunoprecipitation experiment. […]

T1 sequence (P00441 whole entry G94A, species assumed): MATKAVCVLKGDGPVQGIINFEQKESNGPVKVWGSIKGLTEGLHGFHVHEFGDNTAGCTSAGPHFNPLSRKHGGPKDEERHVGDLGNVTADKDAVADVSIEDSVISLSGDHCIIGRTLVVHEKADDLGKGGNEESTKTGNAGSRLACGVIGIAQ
T1 sequence (Q9BUN8 whole entry, species assumed, stated change not applied): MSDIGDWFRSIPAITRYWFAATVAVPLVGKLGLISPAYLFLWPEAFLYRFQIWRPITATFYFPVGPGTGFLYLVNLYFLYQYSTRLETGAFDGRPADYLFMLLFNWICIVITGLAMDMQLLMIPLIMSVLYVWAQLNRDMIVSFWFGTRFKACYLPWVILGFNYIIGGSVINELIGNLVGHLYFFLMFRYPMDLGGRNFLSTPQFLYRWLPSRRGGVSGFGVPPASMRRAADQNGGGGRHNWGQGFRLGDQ

| Compound | Activity value (score) |
| --- | --- |
| Nc1c(C(=O)Nc2ccc(C(F)(F)F)cc2)sc2nc(-c3cccnc3)ccc12 [Example 29, 3-amino-6-(3-pyridinyl)-N-(4-(trifluoromethyl)phenyl)thieno[2,3-b]pyridine-2-carboxamide] | 1 |
| Nc1c(C(=O)Nc2ccc(-c3cc(C(F)(F)F)cc(C(F)(F)F)c3)cc2)sc2nc(-c3cccnc3)ccc12 [Example 30, 3-amino-N-(3′,5′-bis(trifluoromethyl)-[1,1′-biphenyl]-4-yl)-6-(3-pyridinyl)thieno[2,3-b]pyridine-2-carboxamide] | 1 |
| Nc1c(C(=O)Nc2cccc(C(F)(F)F)c2)sc2nc(-c3ccncc3)ccc12 [Example 31, 3-amino-6-(4-pyridinyl)-N-(3-(trifluoromethyl)phenyl)thieno[2,3-b]pyridine-2-carboxamide] | 1 |
| Nc1c(C(=O)Nc2ccncc2)sc2nc(-c3ccncc3)ccc12 [Example 32, 3-amino-N-(4-pyridinyl)-6-(4-pyridinyl)thieno[2,3-b]pyridine-2-carboxamide] | 1 |
| Nc1c(C(=O)Nc2ccncc2)sc2nc(-c3cncnc3)ccc12 [Example 33, 3-amino-N-(4-pyridinyl)-6-(5-pyrimidinyl)thieno[2,3-b]pyridine-2-carboxamide] | 1 |
| C=C(C)CN(C(=O)c1sc2nc(-c3cccnc3)ccc2c1N)c1ccc(F)cc1 [Example 34, 3-amino-N-(4-fluorophenyl)-N-(2-methylprop-2-en-1-yl)-6-(3-pyridinyl)thieno[2,3-b]pyridine-2-carboxamide] | 1 |
| C#CCN(C(=O)c1sc2nc(-c3cccnc3)ccc2c1N)c1ccc(F)cc1 [Example 35, 3-amino-N-(4-fluorophenyl)-N-(prop-2-yn-1-yl)-6-(3-pyridinyl)thieno[2,3-b]pyridine-2-carboxamide] | 1 |
| C#CCOC/C=C\CN(C(=O)c1sc2nc(-c3cccnc3)ccc2c1N)c1ccccc1 [Example 36] | 1 |
| Nc1c(C(=O)N(Cc2ccccc2)c2ccccc2)sc2nc(-c3cccnc3)ccc12 [Example 37, 3-amino-N-benzyl-N-phenyl-6-(3-pyridinyl)thieno[2,3-b]pyridine-2-carboxamide] | 2 |
| CC(C)=CCN(C(=O)c1sc2nc(-c3cccnc3)ccc2c1N)c1ccncc1 [Example 39, 3-amino-N-prenyl-N-(4-pyridinyl)-6-(3-pyridinyl)thieno[2,3-b]pyridine-2-carboxamide] | 1 |

Continued, values first:

| Activity value (score) | Compound |
| --- | --- |
| 1 | Nc1c(C(=O)N(CC=C2CCCC2)c2ccccc2)sc2nc(-c3cccnc3)ccc12 [Example 40, 3-amino-N-(2-cyclopentylideneethyl)-N-phenyl-6-(3-pyridinyl)thieno[2,3-b]pyridine-2-carboxamide] |
| 3 | CC1(C)CCN(C(=O)c2sc3nc(-c4cccnc4)ccc3c2N)c2ccccc21 [Example 41] |
| 1 | CC(C)=CCN(C(=O)c1ccc2nc(-c3cccnc3)ccc2c1N)c1ccccc1 [Example 42, 5-Amino-N-phenyl-N-prenyl-2-(pyridin-3-yl)quinoline-6-carboxamide] |
| 1 | CC(C)=CCN(C(=O)c1sc2nc(-c3ccncc3)ccc2c1N)c1ccc(C(C)(C)C)cc1 [Example 43, 3-amino-N-(4-tert-butylphenyl)-N-(3-methylbut-2-en-1-yl)-6-(4-pyridinyl)thieno[2,3-b]pyridine-2-carboxamide] |
| 1 | CC1(C)CCN(C(=O)c2sc3nc(-c4ccncc4)ccc3c2N)c2ccccc21 [Example 44] |
| 1 | COc1cccc(N(CC=C(C)C)C(=O)c2sc3nc(-c4ccncc4)ccc3c2N)c1 [Example 45, 3-amino-N-(3-methoxyphenyl)-N-prenyl-6-(4-pyridinyl)thieno[2,3-b]pyridine-2-carboxamide] |
| 2 | COc1ccc(N(CC=C(C)C)C(=O)c2sc3nc(-c4ccncc4)ccc3c2N)cc1 [Example 46, 3-amino-N-(4-methoxyphenyl)-N-prenyl-6-(4-pyridinyl)thieno[2,3-b]pyridine-2-carboxamide] |
| 2 | C=C(C)CN(C(=O)c1sc2nc(-c3ccncc3)ccc2c1N)c1ccccc1 [Example 47, 3-amino-N-metallyl-N-phenyl-6-(4-pyridinyl)thieno[2,3-b]pyridine-2-carboxamide] |
